Measured values: US20160030407A1, “Method of Treating Inflammatory Lung Disease” (priority 2010, published 2016)
Converted amounts (≈) assume the structure as drawn. “And” between values parts separate entries of the source, which are not always exact repeats. Equal entries are not always repeated.

Assays:
nAChR α7 = biological target: T1, nAChR α7 (Homo sapiens, UniProt P36544); experiment: nAChR α7 channel agonist assay (FLIPR); type: cell-based; conditions: in presence of PNU-120596; maximal stimulation not achieved
T1 construct: host or cells: CHO cells coexpressing RIC-3
T1 sequence (P36544 23-502): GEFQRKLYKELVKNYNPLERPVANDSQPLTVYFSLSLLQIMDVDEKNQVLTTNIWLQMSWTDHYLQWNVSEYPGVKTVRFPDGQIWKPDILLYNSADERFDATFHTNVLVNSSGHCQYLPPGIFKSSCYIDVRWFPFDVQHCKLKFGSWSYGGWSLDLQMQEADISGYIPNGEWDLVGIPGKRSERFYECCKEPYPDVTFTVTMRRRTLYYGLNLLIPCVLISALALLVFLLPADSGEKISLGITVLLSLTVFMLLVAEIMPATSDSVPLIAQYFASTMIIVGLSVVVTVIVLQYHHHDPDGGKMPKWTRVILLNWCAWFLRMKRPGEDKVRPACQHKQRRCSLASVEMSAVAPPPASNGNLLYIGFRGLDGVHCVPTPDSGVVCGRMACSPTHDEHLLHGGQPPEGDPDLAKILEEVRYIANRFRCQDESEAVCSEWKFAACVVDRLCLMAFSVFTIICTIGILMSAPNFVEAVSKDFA
Experimental: Briefly, cells were incubated with […] dye for 30 min at 37° C.
Therefore, the assay of agonist activity for either Ach or for the test articles was conducted in the presence of the positive allosteric modulator.

autoimmune thyroiditis = experiment: Autoimmune thyroiditis model (Example 16B): thyroid histopathology; type: in vivo, CBA/J mice; conditions: 0.05 mg/ml in drinking water; day 21; p=0.023
Experimental: In another experiment, eighteen CBA/J female mice were immunized with mouse thyroglobulin, emulsified in complete Freund's adjuvant, on day 0 and day 7. One group of mice (n=10) drank regular water. […] Mice were sacrificed 21 days after the first immunization to collect the thyroid gland and the blood. The thyroid was analyzed for the presence of infiltrating mononuclear cells. The blood was analyzed for the levels of antibodies against thyroglobulin.

[1] = Single i.v. dose toxicity: coagulation (aPTT, PT); type: in vivo, Sprague-Dawley rats
Description: (§1) On day 15, urine was collected on all surviving animals for urinalysis. The animals were euthanized and bled via cardiac puncture. Blood was collected for hematology, clinical chemistry, and coagulation analysis. Tissues were collected, weighed, and stored in 10% neutral-buffered formalin for possible future analysis.

BACE-1 mRNA = BACE-1 mRNA levels in SHSY cells (RTPCR); type: cell-based, human; conditions: 30 minutes, TNF-α used to increase BACE expression
Description: TNF-α was used to increase BACE expression.

NFκB = NFκB luciferase assay (inhibition of TNFα-induced NFκB activity); type: cell-based, Human; conditions: for Effect on TNFα-induced NFκB-mediated transcription of luciferase: HEK293 with NFκB luciferase reporter challenged with TNFα
Experimental: The smokeless tobacco used in these experiments was plain long-leaf Copenhagen tobacco purchased from a local vendor. Crude extract was extracted with methanol and water and clarified by centrifugation and filtration. The alkaloid extract was prepared from sodium hydroxide and methanol extraction, organic phase separation and purification. All treatment samples were prepared as a function of weight (μg/ml), and all samples were diluted in DMSO.
Human […] kidney cells (HEK293) transfected with an NFκB luciferase reporter were challenged with TNFα for three hours, then samples were applied to the challenged cells.
The effect of S-(−)-anatabine on TNFα-induced NFκB activity in vitro was determined as described in Example 1.

[2] = Single i.v. dose toxicity: urinalysis; type: in vivo, Sprague-Dawley rats; conditions: for Urinalysis KETONES / Urinalysis BILIRUBIN / Urinalysis BLOOD / Urinalysis PROTEIN / Urinalysis pH / Urinalysis CLARITY / Urinalysis COLOR / Urinalysis GLUCOSE / Urinalysis UROBILINOGEN / Urinalysis VOLUME: individual animals M and F; for urinalysis parameters vs controls: rat, day 15 after single i.v. dose
Description: as §1

[3] = system: antibodies to PPD and thyroglobulin; experiment: Experimental Autoimmune Thyroiditis (Example 16A): serum antibodies to PPD and thyroglobulin; type: in vivo, mice
Experimental: Thyroiditis was induced by injection of thyroglobulin emulsified in complete Freund's adjuvant […]. On days 0 and 7, female mice received subcutaneous injection of 100 μg thyroglobulin (2 injections of 50 μg each). Control mice drank water. […] Mice were sacrificed on day 21.
Serum from control and anatabine-treated mice was examined to determine levels of antibodies to a foreign antigen (PPD).
Levels of antibodies to thyroglobulin were examined on days 7, 14, and 21 after immunization.

[4] = Single i.v. dose toxicity, 14-day observation: general observations and mortality (incl. nicotine tolerability study); type: in vivo, Sprague-Dawley rats
Experimental: Body weight and food consumption was measured daily for 14 days. On day 15, urine was collected on all surviving animals. The animals were euthanized and bled via cardiac puncture, and blood was collected for analysis. Tissues were collected, weighed, evaluated for gross abnormalities, and stored in 10% neutral-buffered formalin.
The animals were weighed prior to dosing and received a single i.v. dose via the lateral tail vein of either test compound or vehicle at a volume of 5 mL/kg.
All animals were observed daily.

[5] = Anatabine dose 0.1 mg/kg, 0.1 mg/kg, female rats
[6] = Anatabine dose 0.1 mg/kg, 0.1 mg/kg, male rats
[7] = Anatabine dose 0.1 mg/kg, female rats
[8] = Anatabine dose 0.1 mg/kg, male rats
[9] = Anatabine dose 0.75 mg/kg, 0.75 mg/kg, female rats
[10] = Anatabine dose 0.75 mg/kg, 0.75 mg/kg, male rats
[11] = Anatabine dose 0.75 mg/kg, female rats
[12] = Anatabine dose 0.75 mg/kg, male rats

In the case of `C1=CCC(c2cccnc2)NC1` (racemic) [Anatabine, 1,2,3,6-tetrahydro-[2,3′]bipyridinyl], the agonist activity (nAChR α7) is reported as “showed agonist activity”, the “frequency and severity of thyroiditis” value (autoimmune thyroiditis) is reported as “developed thyroiditis less frequently and of lower severity” and the “ACTIVE PARTIAL THROMBOPLASTIN TIME” value ([1]; Anatabine 0.1 mg/kg single i.v. dose, female rats, individual animals B6-B10) is reported as 26 s. The “ACTIVE PARTIAL THROMBOPLASTIN TIME” value ([1]; Anatabine 0.1 mg/kg single i.v. dose, male rats, individual animals B1-B5) was 32 s, the “aPTT and PT vs vehicle control” value ([1]; rat, each anatabine treatment group) was “no significant differences in aPTT or PT” and the “BACE-1 mRNA expression” value (BACE-1 mRNA) was “reduced this signal in a concentration-dependent manner”. For the same compound, the “Effect on TNFα-induced NFκB-mediated transcription of luciferase” value (NFκB) was “reduce this transcription to control levels”, the IC50 (NFκB; Homo sapiens, 20 ng/ml TNFα, HEK293 NFκB luciferase) was ~600 µg/mL (≈ 3.74 mM) and the “Urinalysis KETONES” value ([2]; Anatabine dose 0.1 mg/kg, 0.1 mg/kg) was “NEGATIVE”. The “Urinalysis BILIRUBIN” value [2, 5] was “NEGATIVE”, the “Urinalysis BLOOD” value [2, 5] was “NEG- (3×) and TRACE” and the “Urinalysis PROTEIN” value [2, 5] was “NEG-”. The “Urinalysis pH” value [2, 5] was 7.5 (2×) and 7 and 8, the “Urinalysis BILIRUBIN” value [2, 6] was “NEGATIVE” and the “Urinalysis BLOOD” value [2, 6] was “TRACE (2×) and NEG-”. For the same compound, the “Urinalysis PROTEIN” value [2, 6] was “TRACE (3×) and NEG-”, the “Urinalysis pH” value [2, 6] was 8.5 and 7.5 (2×) and 7 and the “Urinalysis CLARITY” value [2, 7] was “HAZY”. For the same compound, the “Urinalysis COLOR” value [2, 7] was “YELLOW”, the “Urinalysis GLUCOSE” value [2, 7] was “NEGATIVE” and the “Urinalysis UROBILINOGEN” value [2, 7] was “NORMAL”. For the same compound, the “Urinalysis VOLUME” value [2, 7] was <0.5 mL, the “Urinalysis CLARITY” value [2, 8] was “HAZY” and the “Urinalysis COLOR” value [2, 8] was “YELLOW”. The “Urinalysis GLUCOSE” value [2, 8] was “NEGATIVE”, the “Urinalysis UROBILINOGEN” value [2, 8] was “NORMAL” and the “Urinalysis VOLUME” value [2, 8] was <0.5 mL. The “Urinalysis CLARITY” value ([2]; Anatabine dose 0.75 mg/kg) was “HAZY”, the “Urinalysis COLOR” value ([2]; Anatabine dose 0.75 mg/kg) was “YELLOW” and the “Urinalysis VOLUME” value ([2]; Anatabine dose 0.75 mg/kg) was <0.5 mL. For the same compound, the “Urinalysis PROTEIN” value ([2]; Anatabine dose 0.75 mg/kg, 0.75 mg/kg) was “TRACE”, the “Urinalysis BILIRUBIN” value [2, 9] was “NEGATIVE” and the “Urinalysis BLOOD” value [2, 9] was “TRACE and NEG-”. For the same compound, the “Urinalysis KETONES” value [2, 9] was “NEGATIVE”, the “Urinalysis pH” value [2, 9] was 7.5 and 6 and 8 (2×) and the “Urinalysis BILIRUBIN” value [2, 10] was “NEGATIVE”. The “Urinalysis BLOOD” value [2, 10] was “TRACE and NEG- (3×)”, the “Urinalysis KETONES” value [2, 10] was “NEGATIVE” and the “Urinalysis pH” value [2, 10] was 7. For the same compound, the “Urinalysis GLUCOSE” value [2, 11] was “NEGATIVE”, the “Urinalysis UROBILINOGEN” value [2, 11] was “NORMAL” and the “Urinalysis GLUCOSE” value [2, 12] was “NEGATIVE”. For the same compound, the “Urinalysis UROBILINOGEN” value [2, 12] was “NORMAL”, the “urinalysis parameters vs controls” value [2] was “no notable differences in any of the urinalysis parameters” and the “antibodies to PPD vs control” value ([3]; 0.05 mg/ml in drinking water) was “no significant difference”. The “antibodies to thyroglobulin vs control” value ([3]; day 7) was “no significant difference”, the “antibodies to thyroglobulin vs control” value ([3]; day 14, p=0.086) was “tended to have lower thyroglobulin antibodies” and the “antibodies to thyroglobulin vs control” value ([3]; day 21) was “no significant difference”.
With `CN1CCCC1c1cccnc1.O=C(O)C(O)C(O)C(=O)O` (single isomer, unassigned; (-)) [Nicotine, (−) Nicotine hydrogen tartrate, reference compound] the agonist activity (nAChR α7) was “showed agonist activity”, the “aPTT vs vehicle control” value ([1]; male and female rats, nicotine 0.75 mg/kg) was “significantly lower relative to the vehicle control group” and the “ACTIVE PARTIAL THROMBOPLASTIN TIME” value ([1]; nicotine 0.75 mg/kg single i.v. dose, female rats, individual animals E6, E9, tartrate) was 15 s. The “ACTIVE PARTIAL THROMBOPLASTIN TIME” value ([1]; nicotine 0.75 mg/kg single i.v. dose, male rats, individual animals E1, E2, E3, E5, tartrate) was 15 s, the “Effect on TNFα-induced NFκB-mediated transcription of luciferase” value (NFκB) was “reduce TNFα-induced NFκB-mediated transcription” and the “time until return to normal, tolerability study” value ([4]; female rats, nicotine 1.25 and 1.0 mg/kg i.v., post dose) was ≤ 20 min. For the same compound, the “observations after dosing, tolerability study” value ([4]; female rats, single i.v. nicotine 1.25 mg/kg (1) and 1.0 mg/kg (3)) was “experienced severe tremors upon completion of dosing”, the “time until return to normal” value ([4]; rat, nicotine 0.75 mg/kg i.v., post dose) was 15 to 20 min and the observations after dosing ([4]; rat, single i.v. 0.75 mg/kg nicotine) was “experienced tremors upon compound administration”. For the same compound, the mortality ([4]; rat, single i.v. 0.75 mg/kg nicotine (5 males, 5 females)) was “One male and two females died post dose” and the “urinalysis parameters vs controls” value [2] was “no notable differences in any of the urinalysis parameters”.
